The text below walks through data of patent publication US5594144A, “Tropolone derivatives and pharmaceutical composition thereof for preventing and treating ischemic diseases” (The Upjohn Company, priority 1990, dated 1997).

As a reminder, the inhibition is the drop in the measured response relative to a control, in per cent. Lower therefore signals little suppression.

Experiment [1] deals with Brain microsomal fractions. The experiment can be described thus: in vitro Anti-lipid peroxidation effect (TBAR production, Fe3+-ADP/NADPH). It counts as biochemical, rat (SD strain, male). How it is done:
1. in vitro Anti-lipid peroxidation effect
Brain microsomal fractions were prepared from male rats of SD strain, and a portion (0.2 mg protein) was incubated at 37° C. for 15 minutes with a mixture of Fe^3+ (0.1 mM)--ADP (0.5 mM) in the presence or absence of the test compound, in final volume of 1 ml of 10 mM HEPES, 150 mM KCl, 0.2 mM NADPH, pH 7.4. After incubation, 1.5 ml of TCA-TBA-HCl reagent (16.7% trichloroacetic acid, 0.4% thiobarbituric acid, 0.278N hydrochloric acid) was added and the reaction mixture was heated in a boiling water for 15 minutes. After cooling in ice-bath, the reaction mixture was centrifuged, and the absorbance of the supernatant at 535 nm was measured. The amount of thiobarbituric acid reactive substance (TBAR) was obtained by calculation using an extinction coefficient of 1.56×10^5 […]. […] The results are shown in Table 1A for compounds of the formulas IA, IB, and IC, respectively. The compounds with highest inhibition rate have the greatest anti-lipid peroxidation effect.

For experiment [2], the system named is pig right coronary artery. Kind of experiment: in vitro Ca-antagonism (high K+ induced 45Ca-influx). The following applies: Sus scrofa, K+ 75 mM. It counts as cell-based. How it is done: 2. in vitro Ca-antagonism
A strip of pig right coronary artery was depolarized with high K^+ (75 mM) for 30 minutes to induce voltage dependent ^45 Ca-influx. The extracellular ^45 Ca was chelated by adding EGTA and removed by washing, then the strip was lysed at 100° C. ^45 Ca in this lysate was measured as intracellular ^45 Ca by a scintillation counter. The concentration of the test compound was 10^-7, 10^-6, 10^-5 M, and applied until depolarization by K^+ was completed. Ratio of inhibition at various concentrations of the test compounds for increasing the intracellular ^45 Ca by K^+ was determined. The compound with high inhibition ratio has strong Ca-antagonism.

A further experiment has as its system porcine coronary artery. The experiment can be described thus: in vitro Coronary vasodilation effect (PGF2α-contracted strip). It counts as cell-based. Conditions: Sus scrofa; 25% of papaverine-induced relaxation; read-out: Coronary Vasodilation (ED25 μM). How it is done: 3. in vitro Coronary vasodilation effect
The right portion of a porcine coronary artery was isolated, and cut into 3 mm wide strip which was suspended in a organ bath filled with 20 ml of Krebs--Henseleit solution (37° C.). During the experiment the bath solution was aerated with 95% O2 +5% Co2. The change in tension was measured using an isometric transducer. After load tension was stabilized, the preparation was contracted with PGF2α (10^-6 -[…]). After the contract level had stabilized the test compound was cumulatively applied from 10^-8 to 10^-5 M. Papaverine (10^-4 M) was used to obtain maximal relaxation at the end of the experiment. The result was expressed as the percentage of papverine-induced relaxation, and the concentration of the test compound which gave 25% relaxation of papaverine-induced relaxation was defined as ED25. The compound with low ED25 value has great coronary vasodilation effect.

Experiment [3] has as its system Mouse Cerebral Ischemia/Reperfusion. Kind of experiment: in vivo Behavior test (Mouse Cerebral Ischemia/Reperfusion Test). On the set-up: species or system mouse (ICR strain, male). As to the method:
Bilateral common carotid arteries of both sides of ICR strain male mice (about 8 weeks old) were occluded for 5 minutes while lightly anesthetized, then blood was reperfuged. The test compounds were intraperitoneally administered 10 minutes before occlusion and within 3 hours after reperfusion. Since a day after reperfusion, behavior disorder was evaluated by spontaneous motor activity of exploratory behavior, traction test and passive avoidance test. That is, spontaneous motor activity was evaluated as follows. Motor activity was measured by tilting cage method for 30 minutes since immediately after a mouse was placed in a measurement cage. If the motor activity was at least more than (average of spontaneous motion of the group received solvent) +2×SD, the compound was evaluated as "active." In traction test, both fore limbs of the mouse were placed on the horizontally stretched wire. If the mouse put its hind limb within 2 seconds, the compound was estimated as "active.". In passive avoidance test, a step-through type apparatus was used, and as acquisition trial of blood reperfusion, electrical shock (about 0.5 mA, 3 seconds) was given to the mice as soon as the whole body of mice entered the black room and on the next day test trial was carried out. The mouse which stayed in a light room for at least 300 seconds was estimated as an active example. In all tests, the test compound which provided at least 50% of active animals was determined as "active." The results are shown in Table 5.

The test system of the next experiment is ventricular arrhythmia. Kind of experiment: in vivo Ischemic heart/reperfusion test. The following applies: Rattus norvegicus, iv. How it is done: 4. in vivo Ischemic heart/reperfusion test
Experiment was carried out using rats anesthetized with pentobarbital under artificial respiration. After the forth rib was excised, heart was exposed by thoracotomy, and the thread was placed under the left coronary artery at it origin. Then, the heart was returned and a thread was passed in a tube. Compounds were applied through tail vein. After 10 minutes, the thread in the tube was pulled to occlude coronary artery. Five minutes after occlusion, the thread was loosened again for reperfusion. Then, ventricular arrhythmia was recorded on electrocardiogram (lead II), by sticking needle electrodes into a right fore-limb and a left hind-limb. Duration time of ventricular tachycardia and occurrence of ventricular fibrillation caused after reperfusion were compared between a group receiving the test compounds and a similarly treated vehicle group. If either of two parameters of the group that received the test compound became less than half of that of the group that received the vehicle, the test compound was estimated as "active".

The mark [4] stands for this setting: ip, route cell empty (method: intraperitoneally).
Where [5] appears, read: read-out: Minimal Effective Dose (mg/kg, i.v.).

Like-named read-outs stand apart in the source and are kept apart here.

For `CC(C)c1ccc(CN2CCN(C(c3ccccc3)c3ccc(Cl)cc3)CC2)c(=O)c(O)c1` (stereo not drawn) [Compound 1A, 7-[4-(4-chlorobenzhydryl)piperazino-1-methyl]-2-hydroxy4-isopropyl-2,4,6-cycloheptatrien-1-one], in experiment [1], the “Anti-Lipid Peroxidation (% inhibition) 10 μM” value is recorded as 6.7% and the “Anti-Lipid Peroxidation (% inhibition) 50 μM” value is recorded as less than 21.3%. Also, in experiment [2], the inhibition at 10 µM came out at 44%. The EC25 in the experiment on porcine coronary artery is more than 10000 nM. The minimal effective dose in experiment [3] (setting [4]) is more than 10 mg/kg.

With `COc1cc(C(C)C)ccc(CN2CCN(C(c3ccccc3)c3ccc(Cl)cc3)CC2)c1=O` (stereo not drawn) [Compound 2A, 7-[4-(4-chlorobenzhydryl)piperazino-1-methyl]-4-isopropyl-2-methoxy-2,4,6-cycloheptatrien-1-one], in experiment [1], the “Anti-Lipid Peroxidation (% inhibition) 10 μM” value is listed as 28.8%. In experiment [1], the “Anti-Lipid Peroxidation (% inhibition) 50 μM” value is given as 84.7%. Further, the inhibition at 10 µM in experiment [2] is 61%. In addition, the EC25 with porcine coronary artery was found to be 1800 nM. The minimal effective dose is 0.3 mg/kg with ventricular arrhythmia (value marked # (methanesulfonate per footnote of Table 5)) and 3 mg/kg in experiment [3] (ip, # methanesulfonate, route cell empty (method: intraperitoneally)).

In the case of `COc1cc(C(C)C)ccc(C2Sc3ccccc3N2C)c1=O` (stereo not drawn) [Compound 2B, 2-(2'-oxo-3'-methoxy-5'-isopropyl-3',5',7'-cycloheptatrienyl)-3-methylbenzothiazoline], the “Anti-Lipid Peroxidation (% inhibition) 10 μM” value in experiment [1] was 95.5%. The molecule also came in with a minimal effective dose in experiment [3] (ip) of 1 mg/kg.

For the molecule `COc1cc(C(C)C)ccc(C2Sc3ccccc3N2Cc2ccncc2)c1=O` (stereo not drawn) [Compound 6B, 2-(2'-oxo-3'-methoxy-5'-isopropyl-3',5',7'-cycloheptatrienyl)-3-(4-picolyl)benzothiazoline], in experiment [1], the “Anti-Lipid Peroxidation (% inhibition) 10 μM” value turned out to be 93.1% and the “Anti-Lipid Peroxidation (% inhibition) 50 μM” value came to 96.6%. In addition, in experiment [3] (iv), the minimal effective dose was less than 1 mg/kg.

Regarding `COc1cc(C(C)C)ccc(CN2CCN(C(c3ccc(F)cc3)c3ccc(F)cc3)CC2)c1=O` [Compound 7A, 7-[4-(4,4'-difluorobenzhydryl)piperazino-1-methyl]-4-isopropyl-2-methoxy-2,4,6-cycloheptatrien-1-one], in experiment [1], the “Anti-Lipid Peroxidation (% inhibition) 10 μM” value was determined as 27.2% and the “Anti-Lipid Peroxidation (% inhibition) 50 μM” value came to 59.2%. In experiment [2], this molecule yielded an inhibition at 10 µM of 100%. Further, the EC25 in the experiment with porcine coronary artery is 1900 nM. Further, the minimal effective dose in the experiment on ventricular arrhythmia (setting [5]) was less than 5 mg/kg. This molecule also showed a minimal effective dose in experiment [3] (setting [4]) of less than 10 mg/kg.

Turning to `COc1cc(C(C)C)ccc(C2Sc3ccccc3N2CCCN(C)CCc2ccccc2)c1=O` (stereo not drawn) [Compound 10B, 2-(2'-oxo-3'-methoxy-5'-isopropyl-3',5',7'-cycloheptatrienyl)-3-[3-(N-methyl-N-phenethylamino)propyl]benzothiazoline], in experiment [1], the “Anti-Lipid Peroxidation (% inhibition) 10 μM” value is 93.0% and the “Anti-Lipid Peroxidation (% inhibition) 50 μM” value is listed as 94.5%. In addition, in the experiment on ventricular arrhythmia (setting [5]), the minimal effective dose is less than 5 mg/kg.

In the case of `COc1cc(C(C)C)ccc(C2Sc3ccccc3N2CCN(C)C)c1=O` (stereo not drawn) [Compound 11B, 2-(2'-oxo-3'-methoxy-5'-isopropyl-3',5',7'-cycloheptatrienyl)-3-[2-(N,N-dimethylamino)ethyl]benzothiazoline], the “Anti-Lipid Peroxidation (% inhibition) 10 μM” value in experiment [1] is on record as 89.3%. In addition, the minimal effective dose in the experiment with ventricular arrhythmia (setting [5]) was less than 5 mg/kg; in experiment [3] (ip), 1 mg/kg.

With `COc1cc(C(C)C)ccc(C2Sc3ccccc3N2CCCN(C)C)c1=O` (stereo not drawn) [Compound 12B, 2-(2'-oxo-3'-methoxy-5'-isopropyl-3',5',7'-cycloheptatrienyl)-3-[3-(N,N-dimethylamino)propyl]benzothiazoline], the “Anti-Lipid Peroxidation (% inhibition) 10 μM” value in experiment [1] came to 89.4%. This molecule displayed a minimal effective dose in experiment [3] (ip) of 1 mg/kg.

`CC(C)c1ccc(CN2CCN(C(c3ccc(F)cc3)c3ccc(F)cc3)CC2)c(=O)c(N2CCNCC2)c1` [Compound 19C, 7-[4-(4,4'-difluorobenzhydryl)piperazino-1-methyl]-4-isopropyl-2-(1-piperazino)-2,4,6-cycloheptatrien-1-one]: in experiment [1], the “Anti-Lipid Peroxidation (% inhibition) 10 μM” value is recorded as 30.1% and the “Anti-Lipid Peroxidation (% inhibition) 50 μM” value came to 89.1%. This molecule returned an inhibition at 10 µM in experiment [2] of 62%.

With `CCNc1cccnc1N1CCN(c2cc(C(C)C)ccc(CN3CCN(C(c4ccc(F)cc4)c4ccc(F)cc4)CC3)c2=O)CC1` [Compound 20C, 7-[4-(4,4'-difluorobenzhydryl)piperazino-1-methyl]-2-[4-(3-ethylamino-2-pyridyl)piperazino]-4-isopropyl-2,4,6-cycloheptatrien-1-one], in experiment [1], the “Anti-Lipid Peroxidation (% inhibition) 10 μM” value amounted to 91.6% and the “Anti-Lipid Peroxidation (% inhibition) 50 μM” value amounted to 93.8%. This molecule also registered an inhibition at 10 µM in experiment [2] of 30%.

For the molecule `COc1cc(C(C)C)ccc(CN2C(C)CN(C(c3ccc(F)cc3)c3ccc(F)cc3)CC2C)c1=O` (stereo not drawn) [Compound 21C, 7-[4-(4,4'-difluorobenzhydryl)-2,6-dimethylpiperazino-1-methyl]-4-isopropyl-2-methoxy-2,4,6-cycloheptatrien-1-one], in experiment [1], the “Anti-Lipid Peroxidation (% inhibition) 10 μM” value was determined as 47.8% and the “Anti-Lipid Peroxidation (% inhibition) 50 μM” value came to 89.9%. In experiment [2], this molecule gave an inhibition at 10 µM of 42%.

As to `COc1cc(C(C)C)ccc(CN2CCN(C(c3ccc(F)cc3)c3ccc(F)cc3)CC2C)c1=O` (stereo not drawn) [Compound 22C, 7-[4-(4,4'-difluorobenzhydryl)-2-methylpiperazino-1-methyl]-4-isopropyl-2-methoxy-2,4,6-cycloheptatrien-1-one], in experiment [1], the “Anti-Lipid Peroxidation (% inhibition) 10 μM” value came to 32.8% and the “Anti-Lipid Peroxidation (% inhibition) 50 μM” value was found to be 88.7%. Further, the inhibition at 10 µM in experiment [2] was determined as 66%.

As to `COc1cc(C(C)C)ccc(CN2CCCN(C(c3ccc(F)cc3)c3ccc(F)cc3)CC2)c1=O` [Compound 23C, 7-[4-(4,4'-difluorobenzhydryl)hexahydro-1H-1,4-diazepin-1-ylmethyl]-4-isopropyl-2-methoxy-2,4,6-cycloheptatrien-1-one], in experiment [1], the “Anti-Lipid Peroxidation (% inhibition) 10 μM” value is 21.6% and the “Anti-Lipid Peroxidation (% inhibition) 50 μM” value worked out at 90.7%. The inhibition at 10 µM in experiment [2] worked out at 86%.
